Legend:
SETFA (giant foxtail) = test: Pre-emergence herbicidal activity, warm season; assay type: in vivo, Setaria faberi; settings: GR80 = lowest tested rate (300, 100, 30, 10 g/ha) with 80% or greater inhibition; approx. 14 days after treating; 30/21° C.
Outline: (§1)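 GR80 values derive from percent inhibition relative to untreated plants, read roughly 14 days after sowing and pre-emergence soil-surface treatment (compound in 50:50 acetone/water; rates typically 10, 30, 100, 300 g/ha). Warm-season weeds grew at 30/21° C day/night, cool-season ones at 18/13° C; an asterisk marks activity without reaching 80% at the highest rate.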

oilseed rape (BRSNS) = test: Selectivity test, PPI, cool season crop; assay type: in vivo, Brassica napus; settings: PPI application
Protocol: (§2) A pre-prepared topsoil mixture (described above) was placed in a pot and compacted to a depth of 1.0 to 1.25 cm from the top of the pot. Seeds of each of several monocotyledonous and dicotyledonous annual plant species were placed on top of the soil. A sufficient quantity of soil to cover the seeds and level fill the pot was weighed into an open container. A known amount of the test compound was dissolved or suspended in an organic solvent and applied by spraying to this cover soil. The cover soil was thoroughly mixed to distribute the test compound throughout the cover soil, and was then applied as a cover layer over the seeds. Untreated soil was used as a cover layer for control pots. After treatment the plants were placed in a greenhouse where they received 0.64 cm of overhead irrigation. All subsequent watering consisted of a light overhead mist and/or subirrigation as needed for germination and growth. Tables 9 and 10 below relate to warm season plant species which were placed after pre-emergence treatment in a greenhouse with a 30/21° C. day/night temperature regime. Tables 11 and 12 below relates to cool season plant species placed after pre-emergence treatment in a greenhouse or growth chamber with an 18/13° C. day/night temperature regime. Only the compounds of Examples 1, 6, 8, 11, 13 and 15-20 were included in PPI tests.
(§3) Approximately 14 days after planting and treating, the plants were observed and herbicidal efficacy recorded as percent inhibition by comparison with untreated plants.
(§4) Additional pre-emergence and PPI tests were conducted by the procedures described above, on warm and cool season weed species in the presence of crop species, to assess herbicidal selectivity. Crop species included in warm season tests were corn (Zea mays, ZEAMX), rice (Oryza sativa, ORYSA) and soybean (Glycine max, GLYMX). Crop species included in cool season tests were wheat (Triticum aestivum, TRZAW), barley (Hordeunm vulgare, HORVX) and oilseed rape (Brassica napus, BRSNS).
(§5) Tables 15 and 16 relate to pre-emergence and PPI tests respectively on warm season species. Table 17 relates to pre-emergence tests on cool season species.

[1] = system: AGSST (creeping bentgrass); test: Pre-plant incorporated (PPI) herbicidal activity, cool season; assay type: in vivo, Agrostis stolonifera; settings: weed, PPI application
Protocol: (§6) In another set of tests, the pre-plant incorporated (PPI) activity of compounds of this invention was evaluated on the same species as for the pre-emergence tests described above. In the PPI tests the following procedure, designed to simulate PPI application, was used.
as §2, §3

SINAR (wild mustard) = test: as above; assay type: in vivo, Sinapis arvensis; settings: weed, PPI application
Protocol: as §6, §2, §3

SASKR (russian thistle) = test: as above; assay type: in vivo, Salsola kali; settings: weed, PPI application
Protocol: as §6, §2, §3

[2] = system: GALAP (catchweed bedstraw); test: Pre-emergence herbicidal activity, cool season; assay type: in vivo, Galium aparine; settings: lowest tested rate with 80% or greater inhibition; rates 300, 100, 30, 10 g/ha; about 14 days
Outline: as §1

rice (ORYSA) = test: Selectivity test, PPI, warm season crop; assay type: in vivo, Oryza sativa; settings: PPI application
Protocol: as §2, §3, §4, §5

[3] = system: BRAPP (broadleaf signalgrass); test: Pre-emergence herbicidal activity, warm season; assay type: in vivo, Brachiaria platyphylla; settings: GR80 = lowest tested rate (300, 100, 30, 10 g/ha) with 80% or greater inhibition; approx. 14 days after treating; 30/21° C.
Outline: as §1

PANDI (fall panicum) = test: Pre-plant incorporated (PPI) herbicidal activity, warm season; assay type: in vivo, Panicum dichotomiflorum; settings: PPI application
Protocol: as §6, §2, §3

POROL (common purslane) = test: Pre-emergence herbicidal activity, warm season; assay type: in vivo, Portulaca oleracea; settings: GR80 = lowest tested rate (300, 100, 30, 10 g/ha) with 80% or greater inhibition; approx. 14 days after treating; 30/21° C.
Outline: as §1

CCN(CC)C(=O)n1cnc(S(=O)(=O)C(F)(F)F)n1 [Example 2]
Pre-emergence activity (GR80) SETFA (SETFA (giant foxtail)): 100 g/ha
Percent inhibition BRSNS (oilseed rape (BRSNS); 30 g/ha): 0%
Percent inhibition BRSNS (oilseed rape (BRSNS); 100 g/ha): 80%
Percent inhibition BRSNS (oilseed rape (BRSNS); 300 g/ha): 100%
Percent inhibition BRSNS (oilseed rape (BRSNS); 900 g/ha): 100%
Percent inhibition AGSST ([1]; 30 g/ha): 100%
Percent inhibition AGSST ([1]; 100 g/ha): 99%
Percent inhibition AGSST ([1]; 300 g/ha): 100%
Percent inhibition AGSST ([1]; 900 g/ha): 100%
Percent inhibition SINAR (SINAR (wild mustard); 30 g/ha): 10%
Percent inhibition SINAR (SINAR (wild mustard); 100 g/ha): 100%
Percent inhibition SINAR (SINAR (wild mustard); 300 g/ha): 100%
Percent inhibition SINAR (SINAR (wild mustard); 900 g/ha): 100%
Percent inhibition SASKR (SASKR (russian thistle); 30 g/ha): 50%
Percent inhibition SASKR (SASKR (russian thistle); 100 g/ha): 80%
Percent inhibition SASKR (SASKR (russian thistle); 300 g/ha): 85%
Percent inhibition SASKR (SASKR (russian thistle); 900 g/ha): 100%
Pre-emergence activity GR80, GALAP [2]: 100 g/ha
Percent inhibition ORYSA (rice (ORYSA); 30 g/ha): 0%
Percent inhibition ORYSA (rice (ORYSA); 100 g/ha): 0%
Percent inhibition ORYSA (rice (ORYSA); 300 g/ha): 0%
Percent inhibition ORYSA (rice (ORYSA); 900 g/ha): 30%
Pre-emergence activity (GR80) BRAPP [3]: 300 g/ha
Percent inhibition PANDI (PANDI (fall panicum); 30 g/ha): 100%
Percent inhibition PANDI (PANDI (fall panicum); 100 g/ha): 100%
Percent inhibition PANDI (PANDI (fall panicum); 300 g/ha): 100%
Percent inhibition PANDI (PANDI (fall panicum); 900 g/ha): 100%
Pre-emergence activity (GR80) POROL (POROL (common purslane)): 100 g/ha

Reference: patent US6461997B1, “Triazole sulfones having herbicidal activity” (Monsanto Technology LLC, priority 1999, dated 2002)
